In patent US20230201341A1, “TLR3 AND TLR9 AGONISTS AS VACCINE ADJUVANTS FOR ANTI-CANCER DNA VACCINES” (WISCONSIN ALUMNI RESEARCH FOUNDATION, priority 2021, published 2023):

Tested on: TRAMP-C1 tumor cells
Assay: Tumor study with TRAMP-C1 tumors: DNA vaccine pTVG-AR co-delivered with TLR agonists
Format: in vivo, C57BL/6 mice
Conditions: administered with a DNA cancer vaccine in mice; compared with vaccine alone
Source text: FIG. 6. Combinations of TLR agonists improve the anti-tumor efficacy of a DNA vaccine in a prostate cancer tumor model. C57BL/6 mice were implanted subcutaneously with TRAMP-C1 tumor cells. Mice were immunized intradermally weekly with control vector (pTVG4) or DNA encoding AR ligand-binding domain (pTVG-AR) and delivered alone or co-delivered with TLR1/2, TLR3 and/or TLR9 agonists. (A) shown are the growth curves for each group (n=6 animals per group). (B) Survival plots using the time to death or when tumors reached 2 cm3 in size, whichever occurred first. (C) Tumors obtained at necropsy were evaluated for the percentage of infiltrating CD45^+ cells, CD8^+ T cells among CD45^+ cells, and Treg cells (CD25^+Foxp3^+) among CD4^+CD45^+ cells. (D) Tumor-infiltrating CD8+ T cells were evaluated for 4-1BB and PD-1 expression by flow cytometry.
FIG. 11. Combinations of TLR agonists improve the anti-tumor efficacy of a DNA vaccine in a prostate cancer tumor model. […]
Six- to ten-week-old male C57BL/6 mice were inoculated with 1×10^6 TRAMP-C1 cells, administered subcutaneously with matrigel. […] TLR agonist(s) were co-administered with the vaccine intradermally, and tumor volumes were measured as described above. Obtained tumors were digested in collagenase and DNAse I for 1 hour at 37° C., passed through a […] screen, and analyzed by flow cytometry.

With ODN 1826 the tumor growth suppression was “improved the tumor growth suppression”.
